From patent publication US7635686B2, “Therapeutically useful triethyleneglycol cholesteryl oligonucleotides” (Bioniche Life Sciences, Inc., priority 2001, dated 2009)
{TEG-Chol} = cholesteryl attached through a triethylene glycol (TEG) linker

Assays:
[1] = tested on: MDA-MB-231 (MDA-231) cells; test: MATRIGEL outgrowth after 1 hr pre-incubation, MDA-231; assay type: cell-based, human; conditions: MDA-231, 53 μM pre-incubation 1 hr, 3 days on MATRIGEL, FIG. 1 and FIG. 2
Procedure: (§1) Various in vitro and in vivo assays may be used to evaluate the influence of the extracellular microenvironment on behavior of normal cells and tumor cells. Such assays may employ MATRIGEL® (Becton Dickinson, Franklin Lakes, N.J.), which is a solubilized basement membrane preparation extracted from the Engelbreth-Holm-Swarm murine sarcoma.
(§2) MCF-7, MDA-MB-231 (MDA-231), Hs578T and Mpanc-96 cells were cultured separately in regular culture medium, trypsinized, and counted. 100×10^3 of MDA-231 cells, 100×10^3 of Hs578T cells, 150×10^3 of MCF-7 cells and 150×10^3 of Mpanc-96 cells were separately pre-incubated for 1 hr at 37° C. in a final concentration of 53 μM of SEQ ID NO:1, 53 μM of SEQ ID NO:5 or RCM, and plated on top of MATRIGEL®-coated plates (MATRIGEL® Basement membrane matrix coated cellware 24-well plate,) for 3 days. Plates were fixed with 10% formalin. Digital photographs of the cells in the 24-well plates were taken using a Nikon Coolpix 990 digital camera (Nikon Corporation, Tokyo, Japan) connected to a Nikon inverted microscope model TMS.
(§3) MDA-MB-231 (MDA-231) and Hs578T were cultured in regular culture medium, trypsinized and counted. 100×10^3 of MDA-MB-231 cells or 100×10^3 of Hs578T cells, were separately pre-incubated for 1 hr at 37° C. in a final concentration of 53 μM of SEQ ID NO:4, 53 μM of SEQ ID NO:8 or RCM and plated on MATRIGEL®-coated plates for 3 days. Plates were fixed with 10% formalin. Digital photographs of the cells in the 24-well plates were taken using a Nikon Coolpix 990 digital camera (Nikon Corporation, Tokyo, Japan) connected to a Nikon inverted microscope model TMS.

HIG-82 cells = test: HIG-82 synovial cell proliferation (MTT reduction); assay type: cell-based, rabbit; conditions: 53 μM, 48 hours; for Inhibition of HIG-82 cell proliferation, inhibition (%): MTT
Procedure: Adherent HIG-82 cells, a synovial cell line, were incubated at 10×10^5 cells/ml for 48 hours with 53 μM (final concentration) of SEQ ID NO:2, SEQ ID NO:3, SEQ ID NO:4, SEQ ID NO:6, SEQ ID NO:7, or SEQ ID NO:8. Cellular proliferation was measured using dimethylthiazol-diphenyl-tetrazolium (MTT) reduction (Mosman et al., J. Immunol. Methods 65:55, 1983). MTT was measured at a wavelength of 570 nm using a multiple spectrophotometer reader (ELX800, Bio-TEK, Instruments Inc., Winooski, Vt.). The percentage of inhibition, calculated as […]

Hs578T cells [2] = test: MATRIGEL outgrowth after 1 hr pre-incubation, Hs578T; assay type: cell-based, human; conditions: 53 μM pre-incubation 1 hr, 3 days on MATRIGEL, FIG. 1 and FIG. 2
Procedure: as §1, §2, §3

Hs578T cells [3] = test: Cellular proliferation of Hs578T cells (Trypan blue exclusion count); assay type: cell-based, human; conditions: 53 μM
Procedure: (§4) Either 20×10^3 MDA-MB-231 (MDA-231) or Hs578T cells were plated into individual wells of 24-well plates in regular culture medium (RCM) presence or absence (control) of 53 μM (final concentration) of SEQ ID NO:3, SEQ ID NO:7, 53 μM cholesteryl-TEG phosphoramidite, or corresponding control media (regular culture medium (RCM) for SEQ ID NO:3, RCM with the same amount of water as the amount added with the SEQ ID NO:7, and RCM with the same amount of acetonitrile as the amount added with cholesteryl-TEG phosphoramidite). Cells were cultured for 72 hrs, removed with trypsin and counted with an hemocytometer using the Trypan blue exclusion technique. Results of three independent assays (mean and standard deviation (s.d.) of percentage of changes compared to controls) are shown in Table 9.

EL-4 cells = test: Apoptosis by phosphatidylserine redistribution (annexin V flow cytometry) in EL-4 cells; assay type: cell-based, murine; conditions: 24 hours; for Percentage of positive cells for phosphatidylserine (cells in apoptosis) in EL-4 cells: untreated cells 7%
Procedure: (§5) Redistribution of plasma membrane phosphatidylserine is a characteristic of cells undergoing apoptosis (Martin et al., J. Exp. Med., 182:1545, 1995). The redistribution of phosphatidylserine in the plasma membrane during apoptosis was measured by flow cytometry using FITC (fluorescein isothiocyanate)-conjugated annexin V (BD Pharmingen, San Diego, Calif.). MEG-01 cells, a human chronic myelogeneous leukemia cell line positive for the Philadelphia chromosome and having a BCR-ABL gene fusion, were incubated at 2.5×10^5 cells/ml for 48 hours with 5.3, 26.5 and 53.0 μM final concentrations of SEQ ID NO:1, SEQ ID NO:2, SEQ ID NO:5, SEQ ID NO:6 and cholesteryl-TEG phosphoramidite molecule. The percentage of cells in apoptosis after exposure to the SEQ ID NOs:1, 2, 5, 6, or cholesteryl-TEG phosphoramidite treatment is reported in Table 2. The percentage of apoptosis in untreated MEG-01 cells was 12%.
EL-4 cells, a murine T lymphoma cell line, were incubated at 2.5×10^5 cells/ml for 24 hours with 0.53, 5.3 and 53.0 μM concentrations of SEQ ID NO:3, SEQ ID NO:7 or cholesteryl-TEG phosphoramidite. The percentage of cells in apoptosis after exposure to SEQ ID NO:3, SEQ ID NO:7 or cholesteryl-TEG phosphoramidite treatment is reported in Table 3. The percentage of apoptosis in untreated EL-4 cells was 7%.

[4] = tested on: MDA-MB-231 (MDA-231) cells; test: Cellular proliferation of MDA-231 cells (Trypan blue exclusion count); assay type: cell-based, human; conditions: MDA-231, 53 μM
Procedure: as §4

Hs578T cells [5] = test: Cell cycle progression in Hs578T multicellular spheroids (PI staining); assay type: cell-based, human; conditions: 53 μM, 72 hrs, FIG. 5
Procedure: Multicellular spheroids (MS) is an example of a special in vitro assay, in which tumor cells are cultured in a 3-dimensional manner to form a “tumor-like” structure. In this system, there is a reinforcement of cell-cell interactions that mimic microenvironmental conditions of malignant cells in solid tumors in vivo. In this type of assay, no extracellular matrix components are added. Cells cultured in this MS system differ from those in 2-dimensional systems (monolayer culture conditions). Some of these differences are related to structural and functional differentiation of tumor cells, changes in the cell cycle of tumor cells, “multicellular drug resistance”, and changes in the diffusion and penetration of drugs throughout layers of tumor cells (reviewed in Green et al., Anticancer Drug Des. 14:153, 1999).
About 100×10^3 Hs578T cells per spheroid were cultured in presence of 53 μM final concentration of SEQ ID NO:3, SEQ ID NO:7, 53 μM final concentration of cholesteryl-TEG phosphoramidite (cholTEG) or corresponding control media (regular culture medium (RCM), RCM with the same amount of water (RCMW) as the amount added with the SEQ ID NO:7, and RCM with the same amount of acetonitrile (RCMA) as the amount added with cholesteryl-TEG phosphoramidite). Five spheroids per each experimental condition were cultured for 72 hrs. Afterwards, cell cycle progression was evaluated by propidium iodide (PI) staining (Calbiochem, Novabiochem Corporation, San Diego, Calif.) using a FACScalibur flow cytometer (Becton Dickinson, Franklin Lakes, N.J.). Changes in the percentage of cells in the different phases of the cell cycle were analyzed using MODFIT LT software (Verity Software House Inc).

[6] = tested on: MDA-MB-231 (MDA-231) cells; test: Treatment of pre-formed 3-dimensional MDA-231 structures on MATRIGEL; assay type: cell-based, human; conditions: MDA-231, 53 μM, repeated every 3-4 days up to 17-21 days, FIG. 4
Procedure: The MDA-MB-231 (MDA-231) cells were cultured in regular culture medium, trypsinized and counted. 100×10^3 of MDA-231 cells were plated in regular culture medium (RCM), in wells of 24-well plates coated with 350 μl of MATRIGEL®. After the formation of 3-dimensional structures during 48 hrs without any treatment, the medium was changed, and structures were exposed to a final concentration of 53 μM of SEQ ID NO:3, 53 μM of SEQ ID NO:7, 53 μM of cholesteryl-TEG phosphoramidite, RCM, or their respective control media (RCM with water, RCM with DMSO or RCM with acetonitrile). The treatments were repeated every 3-4 days until a maximum time in culture of 17-21 days. The experiment was repeated three times. Digital photographs of the cells in the 24-well plates were taken using a Nikon Coolpix 990 digital camera connected to a Nikon inverted microscope model TMS.

MCF-7 cells = test: Treatment of pre-formed 3-dimensional MCF-7 structures on MATRIGEL; assay type: cell-based, human; conditions: MCF-7, 53 μM, repeated every 3-4 days up to 19-20 days, FIG. 3
Procedure: MCF-7 cells were cultured in regular culture medium (RCM), trypsinized and counted. 150×10^3 of MCF-7 cells, in wells of 24-well plates coated with 350 μl of MATRIGEL®. After the formation of 3-dimensional structures during 48 hrs without any treatment, the medium was changed and the structures were exposed to a final concentration of 53 μM of SEQ ID NO:3, 53 μM of SEQ ID NO:7, 53 μM of cholesteryl-TEG phosphoramidite, RCM or their respective control media (RCM with water, RCM with DMSO, or RCM with acetonitrile). The treatments were repeated every 3-4 days until a maximum time in culture of 19-20 days. The experiment was repeated three times. Digital photographs of the cells in the 24-well plates were taken using a Nikon Coolpix 990 digital camera connected to a Nikon inverted microscope model TMS.

MEG-01 cells = test: Apoptosis by phosphatidylserine redistribution (FITC-annexin V flow cytometry) in MEG-01 cells; assay type: cell-based, human; conditions: 48 hours; for Percentage of positive cells for phosphatidylserine (cells in apoptosis) in MEG-01 cells: untreated cells 12%
Procedure: as §5

[7] = cultured for 3 days, + stimulation, − inhibition, three independent assays
[8] = translocation of phosphatidylserine, up to 53.0 μM

Molecule | Formation of 3-dimensional structures / cell morphology on MATRIGEL [1] | Inhibition of proliferation of synovial HIG-82 cells (in words) (HIG-82 cells) | Inhibition of HIG-82 cell proliferation, inhibition (%) (HIG-82 cells) | Formation of 3-dimensional structures / cell morphology on MATRIGEL (Hs578T cells [2]) | Effect on cellular proliferation (in words) (Hs578T cells [3]; 72 hrs) | Percentage of changes in cellular proliferation compared to controls (mean ± s.d.) (Hs578T cells [3]; [7]) | Percentage of positive cells for phosphatidylserine (cells in apoptosis) in EL-4 cells (EL-4 cells; 0.53 μM) | Percentage of positive cells for phosphatidylserine (cells in apoptosis) in EL-4 cells (EL-4 cells; 5.3 μM) | Percentage of positive cells for phosphatidylserine (cells in apoptosis) in EL-4 cells (EL-4 cells; 53.0 μM) | Induction of apoptosis in EL-4 cells (in words) (EL-4 cells; [8]) | Effect on cellular proliferation (in words) ([4]; 72 hrs) | Percentage of changes in cellular proliferation compared to controls (mean ± s.d.) [4, 7] | Cell cycle progression in multicellular spheroids (Hs578T cells [5]) | Effect on pre-formed 3-dimensional structures on MATRIGEL [6] | Effect on pre-formed 3-dimensional structures on MATRIGEL (MCF-7 cells) | Percentage of positive cells for phosphatidylserine (cells in apoptosis) in MEG-01 cells (MEG-01 cells; 5.3 μM) | Percentage of positive cells for phosphatidylserine (cells in apoptosis) in MEG-01 cells (MEG-01 cells; 26.5 μM) | Percentage of positive cells for phosphatidylserine (cells in apoptosis) in MEG-01 cells (MEG-01 cells; 53.0 μM) | Induction of apoptosis in MEG-01 cells (in words) (MEG-01 cells; [8])
5′ OH-GTG-OH 3′ (listed as DNA, chemistry not fully specified) [SEQ ID NO:4] | did not change the cellular morphology | did not inhibit proliferation | −7% | did not change the cellular morphology |  |  |  |  |  |  |  |  |  |  |  |  |  |  | 
5′OH-GTG(TEG-cholesteryl) 3′ (3' {TEG-Chol}, sugars by position and backbone not given here) [SEQ ID NO:8, 5′-OH, 3′-TEG cholesteryl synthetic oligonucleotide] | disrupted the growth pattern | capacity to inhibit the cellular proliferation | 64% | disrupted the growth pattern |  |  |  |  |  |  |  |  |  |  |  |  |  |  | 
COc1ccc(C(OCC(COCCOCCOCCOCCCNC(=O)O[C@H]2CC[C@@]3(C)C(=CC[C@H]4[C@@H]5CC[C@H]([C@H](C)CCCC(C)C)[C@@]5(C)CC[C@@H]43)C2)OP(OCCC#N)N(C(C)C)C(C)C)(c2ccccc2)c2ccc(OC)cc2)cc1 (some centres unmarked) [cholesteryl-TEG phosphoramidite] |  |  |  |  | did not significantly affect cellular proliferation | +13 ± 9.2% | 7% | 7% | 7% | neither SEQ ID NO:3 nor cholesteryl-TEG phosphoramidite caused apoptosis | did not significantly affect cellular proliferation | −2.3 ± 15.9% | did not significantly modify cell cycle progression | did not affect the 3-dimensional structures | did not affect the 3-dimensional structures | 12% | 12% | 12% | inactive
